# Earlier results, collected in patent US7138430B2, “Nitrosated and nitrosylated nebivolol and its metabolites, compositions and methods of use” (NitroMed, Inc., priority 2001, dated 2006).
structure (smiles),measurement,setting,value
"O=[N+]([O-])O[C@H]1CO[C@H]2[C@@H]1OC[C@H]2O[N+](=O)[O-] [isosorbide dinitrate, 1,4,3,6-dianhydro-D-glucitol-2,5-dinitrate]",solubility in organic solvents,"organic solvents such as ethanol, ether and chloroform",freely soluble
same,solubility in water,water,sparingly soluble
